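Assay format: 96-well plates, 48-hour exposure. TGI marks complete inhibition of growth.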
How the values were obtained:
Test in all cases: NCI-60 cell line screen, 48 h
SF-268 CNS = test system: SF-268 CNS
HCC-2998 colon = test system: HCC-2998 colon
UACC-62 melanoma = test system: UACC-62 melanoma
HCT-15 colon = test system: HCT-15 colon
KM12 colon = test system: KM12 colon
CAKI-1 renal = test system: CAKI-1 renal
SF-539 CNS = test system: SF-539 CNS
MDA-N = test system: MDA-N
NCI-H460 lung = test system: NCI-H460 lung
HOP-62 NSCLC = test system: HOP-62 NSCLC
M14 melanoma = test system: M14 melanoma
U251 CNS = test system: U251 CNS
TK-10 renal = test system: TK-10 renal
NCI-H522 lung = test system: NCI-H522 lung
SK-MEL-28 melanoma = test system: SK-MEL-28 melanoma
HS 578T breast = test system: HS 578T breast
HCT-116 colon = test system: HCT-116 colon
SN12C renal = test system: SN12C renal
NCI/ADR-RES ovarian = test system: NCI/ADR-RES ovarian
MDA-MB-231 breast = test system: MDA-MB-231 breast
ACHN renal = test system: ACHN renal
LOX IMVI melanoma = test system: LOX IMVI melanoma
786-0 renal = test system: 786-0 renal
IGROV1 ovarian = test system: IGROV1 ovarian
DU-145 prostate = test system: DU-145 prostate
OVCAR-8 ovarian = test system: OVCAR-8 ovarian
PC-3 prostate = test system: PC-3 prostate
SNB-75 CNS = test system: SNB-75 CNS
MALME-3M melanoma = test system: MALME-3M melanoma
T-47D breast = test system: T-47D breast
SF-295 CNS = test system: SF-295 CNS
BT-549 breast = test system: BT-549 breast
UO-31 renal = test system: UO-31 renal
COLO 205 colon = test system: COLO 205 colon
OVCAR-4 ovarian = test system: OVCAR-4 ovarian
UACC-257 melanoma = test system: UACC-257 melanoma
K-562 leukemia = test system: K-562 leukemia
SR leukemia = test system: SR leukemia
SK-MEL-5 melanoma = test system: SK-MEL-5 melanoma
A498 renal = test system: A498 renal
A549 NSCLC = test system: A549 NSCLC
OVCAR-3 ovarian = test system: OVCAR-3 ovarian
NCI-H23 lung = test system: NCI-H23 lung
EKVX NSCLC = test system: EKVX NSCLC
RPMI-8226 leukemia = test system: RPMI-8226 leukemia
MDA-MB-435 = test system: MDA-MB-435
HOP-92 NSCLC = test system: HOP-92 NSCLC
NCI-H226 lung = test system: NCI-H226 lung
OVCAR-5 ovarian = test system: OVCAR-5 ovarian
SNB-19 CNS = test system: SNB-19 CNS
MCF7 breast = test system: MCF7 breast
HT29 colon = test system: HT29 colon
RXF 393 renal = test system: RXF 393 renal
SK-MEL-2 melanoma = test system: SK-MEL-2 melanoma
SW-620 colon = test system: SW-620 colon
SK-OV-3 ovarian = test system: SK-OV-3 ovarian
MOLT-4 leukemia = test system: MOLT-4 leukemia
CCRF-CEM leukemia = test system: CCRF-CEM leukemia
HL-60(TB) leukemia = test system: HL-60(TB) leukemia

Measured: TGI

C[N+](C)(N)Cc1csc(-c2ccc(Cl)cc2)n1
not listed: MOLT-4 leukemia | CCRF-CEM leukemia | HL-60(TB) leukemia
> 100 µM: all other assays above

CCC(c1nc2ccccc2c(=O)n1NC(=O)C(C)(C)C)C1(O)CCCCC1 (configuration not stated)
not listed: HCC-2998 colon | TK-10 renal | LOX IMVI melanoma
> 100 µM: all other assays above

Reference: PubChem BioAssay (NCI)
